# Measured values taken from patent US20240174634A1, “Aldehyde Dehydrogenase Inhibitors and Their Therapeutic Use” (priority 2020, published 2024).
# pIC50: −log10 of the molar value.
# Molecular target: T1, ALDH1A3 (Homo sapiens, UniProt P47895)
# T1 sequence (P47895 1-512): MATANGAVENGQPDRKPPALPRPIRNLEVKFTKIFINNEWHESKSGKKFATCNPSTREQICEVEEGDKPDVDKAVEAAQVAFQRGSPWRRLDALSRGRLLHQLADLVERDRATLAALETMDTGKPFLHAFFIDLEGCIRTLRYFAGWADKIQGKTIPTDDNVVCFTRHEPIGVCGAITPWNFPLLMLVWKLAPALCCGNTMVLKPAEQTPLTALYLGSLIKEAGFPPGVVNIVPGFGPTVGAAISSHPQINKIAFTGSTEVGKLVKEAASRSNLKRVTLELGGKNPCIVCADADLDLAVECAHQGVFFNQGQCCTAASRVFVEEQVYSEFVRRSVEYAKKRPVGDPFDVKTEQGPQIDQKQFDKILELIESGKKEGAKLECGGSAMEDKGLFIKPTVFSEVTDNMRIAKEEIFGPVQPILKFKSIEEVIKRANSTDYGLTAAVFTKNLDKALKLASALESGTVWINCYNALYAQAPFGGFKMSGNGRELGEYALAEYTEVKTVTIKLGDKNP
# Test: ALDH1A3 cellular assay (ALDEFLUOR) in WM266.4 melanoma cells
# Assay type: cell-based
# Details: WM266.4 cells; 60 min incubation; percentage of ALDH-positive cells
# Description: Materials: WM266.4 cells were procured from ATCC. (WM266-4 is a metastatic human melanoma cell line.) The ALDEFLUOR™ Assay kit (cat. no. 01700) and Aldefluor buffer (cat. no. 01702) were procured from StemCell Technologies. Dulbecco's Modified Eagle Medium (DMEM), FluoroBrite DMEM, Glutamax and Hoechst 33342 were purchased from ThermoFisher. Verapamil was obtained from Fluorochem. FBS was obtained from Sigma. Echo Qualified 384-well low-dead-volume microplate and Echo Qualified 384-well polypropylene microplate were purchased from Labcyte, and the Microclear black sterile polystyrene microplate from Greiner Bio-One.
# Method: Intracellular inhibition of ALDH1A3 was assessed using the ALDEFLUOR™ Assay kit. The activated ALDEFLUOR™ reagent, BODIPY-aminoacetaldehyde (BAAA), is a fluorescent non-toxic substrate for ALDH enzymes, which freely diffuses into intact and viable cells. In the presence of ALDH enzyme activity, BAAA is converted into BODIPY-aminoacetate (BAA), which is retained inside the cells. The amount of fluorescent reaction product is proportional to the ALDH activity in the cells and is measured using an imaging cytometer. Active efflux of the reaction product is inhibited by an efflux inhibitor (Verapamil) in the ALDEFLUOR™ Assay Buffer.
# A frozen vial of cells was recovered into a T225 flask containing DMEM, high glucose, 10% FBS, 1% glutamax, 1% HEPES. The following day, media was changed and cells were ready for assay from 72 hours after recovery. Cells were transferred into FluoroBrite DMEM (plus 10% FBS, 1% glutamax and 1% HEPES) and diluted to 2.5×10^5 cells/mL. 30 μL of cells were added to each well to give 7500 cells/well and then incubated overnight at 37° C., 5% CO2. After overnight incubation, the media was aspirated and replaced by 20 μL substrate/Hoechst buffer solution. Each plate requires 9 mL of solution comprising, 9 mL ALDEFLUOR assay buffer, 18 μL BAAA substrate (final concentration 500 nM), 4.5 μL Hoechst 33342 (final concentration 5 μg/mL) and 4.5 μL Verapamil (final concentration 50 μM). Compounds were prepared for dosing using the Echo acoustic dispenser by aliquoting into a source plate and dosed directly onto the cell assay plate to give a 10 point dose response per compound ranging from 10 μM to 0.0005 μM final concentration in 3-fold dilution steps. Plates were then incubated for 60 minutes at 37° C., 5% CO2. The buffer was then aspirated and cells washed twice in ice-cold PBS. Plates were kept on ice and 30 μL of cold Aldefluor buffer with 50 μM verapamil dispensed per well. The plates were then imaged using the CellInsight fluorescent microscope. Hoechst fluorescence in the 405 nm channel indicated the nuclear area and this was used to define nuclei and then the surrounding cellular area. Fluorescence in the 488 nm channel of the defined cellular area indicates ALDH1A3 activity. The percentage of cells positive for ALDH activity was plotted versus compound concentration to generate EC50 values using curve fitting parameters defined in Dotmatics software.
row,SMILES,pIC50
1,"Cc1nc(C2CCCN2CCOc2ccc3c(c2)CCC(=O)N3)cs1 (stereo not drawn) [ALDHI-2033, 6-[2-[2-(2-methylthiazol-4-yl)pyrrolidin-1-yl]ethoxy]-3,4-dihydro-1H-quinolin-2-one]",5.00 to 6.00
2,"O=C1CCc2cc(NC(=O)c3scnc3-c3ccccc3F)ccc2N1 [ALDHI-1021, 4-(2-fluorophenyl)-N-(2-oxo-3,4-dihydro-1H-quinolin-6-yl)thiazole-5-carboxamide]",> 7.00
3,"CN(CCOc1ccc2c(c1)CCC(=O)N2)Cc1cccnc1 [ALDHI-3010, 6-[2-[methyl(3-pyridylmethyl)amino]ethoxy]-3,4-dihydro-1H-quinolin-2-one]",6.00 to 7.00
4,"O=C1CCc2cc(OCCN3CC(F)CC3c3cccc(F)c3)ccc2N1 (stereo not drawn) [ALDHI-2052, 6-[2-[4-fluoro-2-(3-fluorophenyl)pyrrolidin-1-yl]ethoxy]-3,4-dihydro-1H-quinolin-2-one]",> 7.00
5,"Cc1cccc(C2CCCN2CCOc2ccc3c(c2)CCC(=O)N3)c1 (stereo not drawn) [ALDHI-2011, 6-[2-[2-(m-tolyl)pyrrolidin-1-yl]ethoxy]-3,4-dihydro-1H-quinolin-2-one]",5.00 to 6.00
6,"Cc1noc(-c2ccccc2C(=O)Nc2ccc3c(c2)CCC(=O)N3)n1 [ALDHI-1008, 2-(3-methyl-1,2,4-oxadiazol-5-yl)-N-(2-oxo-1,2,3,4-tetrahydroquinolin-6-yl)benzamide]",6.00 to 7.00
7,"O=c1ccc2cc(OCCN3CCCC3c3cccc(F)c3)ccc2[nH]1 (stereo not drawn) [ALDHI-2022, 6-[2-[2-(3-fluorophenyl)pyrrolidin-1-yl]ethoxy]-1H-quinolin-2-one]",6.00 to 7.00
8,"CN(C)c1nc(-c2cccc(F)c2)c(C(=O)Nc2ccc3c(c2)CCC(=O)N3)s1 [ALDHI-1002, 2-(dimethylamino)-4-(3-fluorophenyl)-N-(2-oxo-3,4-dihydro-1H-quinolin-6-yl)thiazole-5-carboxamide]",> 7.00
9,"O=C1CCc2cc(OCCN3CCCCC3c3cccc(F)c3)ccc2N1 (stereo not drawn) [ALDHI-2038, 6-[2-[2-(3-fluorophenyl)-1-piperidyl]ethoxy]-3,4-dihydro-1H-quinolin-2-one]",5.00 to 6.00
10,"O=C1CCc2cc(OCCN3CCCC3c3cccc(F)c3)c(F)cc2N1 (stereo not drawn) [ALDHI-2050, 7-fluoro-6-[2-[2-(3-fluorophenyl)pyrrolidin-1-yl]ethoxy]-3,4-dihydro-1H-quinolin-2-one]",6.00 to 7.00
11,"O=C1CSc2cc(OCCN3CCCC3c3ccncc3)ccc2N1 (stereo not drawn) [ALDHI-2029, 7-[2-[2-(4-pyridyl)pyrrolidin-1-yl]ethoxy]-4H-1,4-benzothiazin-3-one]",6.00 to 7.00
12,"O=C1CCc2cc(NC(=O)c3ncsc3-c3cccc(F)c3)ccc2N1 [ALDHI-1014, 5-(3-fluorophenyl)-N-(2-oxo-3,4-dihydro-1H-quinolin-6-yl)thiazole-4-carboxamide]",5.00 to 6.00
13,"O=C1CCc2cc(OCCn3ccnc3-c3ccccc3)ccc2N1 [ALDHI-2041, 6-[2-(2-phenylimidazol-1-yl)ethoxy]-3,4-dihydro-1H-quinolin-2-one]",5.00 to 6.00
14,"O=C1CCc2cc(OCCN3CCCC3c3ccc(F)c(F)c3)ccc2N1 (stereo not drawn) [ALDHI-2039, 6-[2-[2-(3,4-difluorophenyl)pyrrolidin-1-yl]ethoxy]-3,4-dihydro-1H-quinolin-2-one]",6.00 to 7.00
15,"O=C1CCc2cc(OCCN3CCCC3c3ccccc3)ccc2N1 (stereo not drawn) [ALDHI-2019, 6-[2-(2-phenylpyrrolidin-1-yl)ethoxy]-3,4-dihydro-1H-quinolin-2-one]",6.00 to 7.00
16,"CCn1cc(C2CCCN2CCOc2ccc3c(c2)CCC(=O)N3)cn1 (stereo not drawn) [ALDHI-2016, 6-[2-[2-(1-ethylpyrazol-4-yl)pyrrolidin-1-yl]ethoxy]-3,4-dihydro-1H-quinolin-2-one]",5.00 to 6.00
17,"O=C1CCc2cc(NC(=O)c3sc(N4CCNCC4)nc3-c3cccc(F)c3)ccc2N1 [ALDHI-1005, 4-(3-fluorophenyl)-N-(2-oxo-3,4-dihydro-1H-quinolin-6-yl)-2-piperazin-1-yl-thiazole-5-carboxamide]",> 7.00

row,SMILES,pIC50
1,"O=C1CCc2cc(OCCN3C(=O)CCC3c3ccccc3)ccc2N1 (stereo not drawn) [ALDHI-2051, 6-[2-(2-oxo-5-phenyl-pyrrolidin-1-yl)ethoxy]-3,4-dihydro-1H-quinolin-2-one]",> 7.00
2,"O=C1CCc2cc(OCCN3CCC3c3cccc(F)c3)ccc2N1 (stereo not drawn) [ALDHI-2021, 6-[2-[2-(3-fluorophenyl)azetidin-1-yl]ethoxy]-3,4-dihydro-1H-quinolin-2-one]",5.00 to 6.00
3,"O=C1CCc2cc(OCCN3CCCC3c3ccc(F)cc3)ccc2N1 (stereo not drawn) [ALDHI-2003, 6-[2-[2-(4-fluorophenyl)pyrrolidin-1-yl]ethoxy]-3,4-dihydro-1H-quinolin-2-one]",5.00 to 6.00
4,"O=C1COc2cc(NC(=O)c3scnc3-c3cccc(F)c3)ccc2N1 [ALDHI-1016, 4-(3-fluorophenyl)-N-(3-oxo-4H-1,4-benzoxazin-7-yl)thiazole-5-carboxamide]",> 7.00
5,"O=C1CCc2cc(NC(=O)c3scnc3-c3cccs3)ccc2N1 [ALDHI-1023, N-(2-oxo-3,4-dihydro-1H-quinolin-6-yl)-4-(2-thienyl)thiazole-5-carboxamide]",> 7.00
6,"CN(CCOc1ccc2c(c1)CCC(=O)N2)C(=O)c1cccc(F)c1 [ALDHI-3008, 3-fluoro-N-methyl-N-[2-[(2-oxo-3,4-dihydro-1H-quinolin-6-yl)oxy]ethyl]benzamide]",6.00 to 7.00
7,"O=C1COc2cc(OCCN3CCCC3c3cccc(F)c3)ccc2N1 (stereo not drawn) [ALDHI-2009, 7-[2-[2-(3-fluorophenyl)pyrrolidin-1-yl]ethoxy]-4H-1,4-benzoxazin-3-one]",6.00 to 7.00
8,"O=C1CCc2cc(OCCn3nccc3-c3cccc(F)c3)ccc2N1 [ALDHI-2023, 6-[2-[5-(3-fluorophenyl)pyrazol-1-yl]ethoxy]-3,4-dihydro-1H-quinolin-2-one]",> 7.00
9,"C[C@@H](c1ccccc1)N(CCO)CCOc1ccc2c(c1)CCC(=O)N2 [ALDHI-3007, 6-[2-[2-hydroxyethyl-[(1S)-1-phenylethyl]amino]ethoxy]-3,4-dihydro-1H-quinolin-2-one]",6.00 to 7.00
10,"O=C1CCc2cc(NC(=O)c3ocnc3-c3cccc(F)c3)ccc2N1 [ALDHI-1019, 4-(3-fluorophenyl)-N-(2-oxo-3,4-dihydro-1H-quinolin-6-yl)oxazole-5-carboxamide]",5.00 to 6.00
11,"O=C1CCc2cc(OCCN3CCCC3c3ccncc3)ccc2N1 (stereo not drawn) [ALDHI-2004, 6-[2-[2-(4-pyridyl)pyrrolidin-1-yl]ethoxy]-3,4-dihydro-1H-quinolin-2-one]",5.00 to 6.00
12,"O=C1CCc2cc(OCCN3CCCC3c3cccnc3)ccc2N1 (stereo not drawn) [ALDHI-2005, 6-[2-[2-(3-pyridyl)pyrrolidin-1-yl]ethoxy]-3,4-dihydro-1H-quinolin-2-one]",6.00 to 7.00
13,"Cc1ccc(C2CCCN2CCOc2ccc3c(c2)CCC(=O)N3)cc1 (stereo not drawn) [ALDHI-2010, 6-[2-[2-(p-tolyl)pyrrolidin-1-yl]ethoxy]-3,4-dihydro-1H-quinolin-2-one]",6.00 to 7.00
14,"Cn1cc(C2CCCN2CCOc2ccc3c(c2)SCC(=O)N3)cn1 (stereo not drawn) [ALDHI-2026, 7-[2-[2-(1-methylpyrazol-4-yl)pyrrolidin-1-yl]ethoxy]-4H-1,4-benzothiazin-3-one]",5.00 to 6.00
15,"O=C1CCc2cc(OCCN3CC(F)(F)CC3c3cccc(F)c3)ccc2N1 (stereo not drawn) [ALDHI-2053, 6-[2-[4,4-difluoro-2-(3-fluorophenyl)pyrrolidin-1-yl]ethoxy]-3,4-dihydro-1H-quinolin-2-one]",> 7.00
16,"O=C1CSc2cc(OCCN3CCCC3c3ccccn3)ccc2N1 (stereo not drawn) [ALDHI-2027, 7-[2-[2-(2-pyridyl)pyrrolidin-1-yl]ethoxy]-4H-1,4-benzothiazin-3-one]",5.00 to 6.00
